Source: publication PMC5507300, “Antibacterial small molecules targeting the conserved TOPRIM domain of DNA gyrase” (PLoS ONE, 2017)
Values after ≈ are worked out from the molar mass of the structure shown.

Tests used:
E. coli DNA gyrase = molecular target: T1, E. coli DNA gyrase (Escherichia coli, UniProt P0AES6); experiment: Cleavage complex stabilization gel assay; type: biochemical; settings: supercoiled pUC19
T1 construct: purchased New England Biolabs, Beverly, MA
Protocol: Cleavage complex stabilization was detected by assembling a gyrase reaction, as above, containing 0.4μL compound (in 100% DMSO), 12.5 μL H2O, 4 μL 5X buffer, 0.4 μL supercoiled pUC19 DNA substrate (0.4 μg), 3 μL gyrase (15 U). The reaction was incubated at 25°C for 60 min. after which 3 μL 2% SDS and 3 μL 1 mg/mL proteinase K were added. […] DNA in the gel was illuminated with UV light and photographed as above.

E. coli BW25113 ΔtolC = experiment: Broth microdilution MIC, E. coli BW25113 ΔtolC; type: cell-based; settings: Escherichia coli
Excerpt: E. coli HS151 (ΔtolC) has been described previously. Gyrase inhibitor-resistant isolates (GYR101-108) were derived by selection for spontaneous resistance to MRL-770 or MRL-423 (Fig 1) in E. coli HS151 as described below. E. coli BW25113 and the Keio gene deletion collection based on BW25113 [25] were obtained from Thermo Fisher Scientific (Waltham, MA) and described in [26]. The plasmid-borne FQ resistance determinant, qnrVC3 [27], was kindly provided by D. Hooper (Massachusetts General Hospital). MB9796 (A. baumannii) is a derivative of MB9797 (ATCC19606) lacking lipopolysaccharide. The efflux-defective P. aeruginosa strain MB5890 (CB398) is a derivative of MB5919 (PAO1). MB2884 (E. coli) and CL15245 (K. pneumoniae) are clinical isolates from the Merck & Co., Inc., Kenilworth, NJ, USA, strain collection. S. aureus COL is a methicillin-resistant clinical isolate.
(§1) Compound doubling dilutions were prepared in 100% DMSO (Sigma Aldrich) and 2 μL of each dilution was transferred to a 96-well plate with lid (Thermo Scientific). Inoculum for all MIC testing was prepared using the BBL Prompt Inoculation System (Becton Dickinson, Franklin Lakes, NJ USA) as described by the manufacturer to produce a suspension of cells at approximately 1.5 x 10^8 colony forming units (CFU)/mL [34–36] and a further dilution (1:1000) was made into cation adjusted Mueller-Hinton broth (CAMH broth, Becton-Dickinson). One hundred μL of this inoculum were then transferred to each well of the 96-well plate containing diluted compound (above). Plates were covered and incubated overnight (18 hrs.) at 37°C.
The yacG deletion allele from the Keio collection was amplified by PCR (primers: […] and […]) and moved to BW25113 ΔtolC as described below. The E. coli strain BW25113 ΔtolC containing pKD46 [25] was used to inoculate SOB (Invitrogen)/0.2% w/v arabinose (Sigma Aldrich)/ampicillin (100 μg/mL) and grown overnight at 30°C. The overnight culture was then diluted 1/40 into 20 mL fresh SOB/0.2% w/v arabinose/ampicillin (100 μg/mL) and grown at 30°C while shaking for ~3 hrs until OD600 = 0.5. […]

[1] = test system: E. coli BW25113 ΔtolC/ΔyacG; experiment: Broth microdilution MIC, E. coli BW25113 ΔtolC/ΔyacG; type: cell-based
Protocol: as §1
The yacG deletion allele from the Keio collection was amplified by PCR (primers: […] and […]) and moved to BW25113 ΔtolC as described below. The E. coli strain BW25113 ΔtolC containing pKD46 [25] was used to inoculate SOB (Invitrogen)/0.2% w/v arabinose (Sigma Aldrich)/ampicillin (100 μg/mL) and grown overnight at 30°C. The overnight culture was then diluted 1/40 into 20 mL fresh SOB/0.2% w/v arabinose/ampicillin (100 μg/mL) and grown at 30°C while shaking for ~3 hrs until OD600 = 0.5. Cells were pelleted by centrifugation at 4000 rpm for 10 min, washed with 40 mL ice cold sterile, distilled H2O, then 3 x 1 mL ice cold 10% glycerol followed by centrifugation at 5000 g for 3 minutes. The pellet was resuspended in 100 μL of 10% glycerol (1/200 of starting culture). For transformation, 5 μL of gel purified PCR product was added to 50 μL cells, mixed, and immediately electroporated in a 0.2 cm gap cuvette at 2.5kV, 25 μF, 200 Ω (BioRad, Hercules, CA USA). Electroporated cells were recovered in 1 mL SOC (Invitrogen)/0.2% arabinose at 37°C for 2 hours with shaking. Cells in amounts of 50 and 950 μL were then plated on LB agar supplemented with kanamycin (25 μg/mL) and incubated overnight at 37°C. Correct gene replacements were verified by PCR.

E. coli HS151 = experiment: In vitro time-dependent bactericidal study; type: cell-based
Protocol: A culture of E. coli HS151 in CAMH broth was grown overnight (18 hrs.) at 37°C, diluted 1:10,000 in 200 mL of fresh CAMH broth and further incubated for 1 hour at 37°C with shaking. A time-zero sample was then removed and 20 mL portions of the remaining culture were transferred into 125 mL vented flasks to which were added MRL-1082 or control antibiotics, at the indicated concentrations. These flasks were then incubated at 37°C with shaking (70 rpm). Samples were withdrawn at the indicated times, plated on blood agar (trypticase soy agar with 5% sheep blood, Becton-Dickinson) and, following overnight growth at 37°C, colonies were counted to determine CFU/mL.

E. coli topoisomerase IV = molecular target: T2, E. coli topoisomerase IV (Escherichia coli, UniProt P20083); experiment: E. coli topoisomerase IV decatenation reaction; type: biochemical; settings: maximum achievable concentration (200 μM), kDNA decatenation
T2 construct: purchased TopoGEN, Inc

[2] = test system: DNA synthesis in E. coli JL553; experiment: Macromolecule synthesis labeling; type: cell-based; settings: E. coli JL553, 25 min exposure, labeled precursor incorporation
Protocol: Macromolecule synthesis profiling was conducted as described by Montgomery, et al. with minor modifications. E. coli strain JL553 (tolC, lysE) was used to measure inhibition of DNA, RNA, protein, peptidoglycan and phospholipid biosynthesis while E. coli MB5500 (lpxC [envA1], galE; Merck & Co., Inc., Kenilworth, NJ, USA, strain collection) was used to measure inhibition of lipopolysaccharide biosynthesis. Radioisotope labeled precursors were used at the following final concentrations [2-^14C]-thymidine (2.5 μCi/mL), [^14C(U)]-uridine (0.5 μCi/mL), L-[4, 5-^3H]-leucine (5 μCi/mL), [2-^3H]-glycerol (2 μCi/mL), [^3H]-diaminopimelic acid (3 μCi/mL), D-[1-^14C]-galactose (0.5 μCi/mL). Compound concentrations (3-fold serial dilutions) were chosen to place the minimum inhibitory concentration (see below) near the center of the dose range. Labeled cultures were incubated with compound for 25 min; stopped with trichloroacetic acid, filtered and incorporation was measured as described. Percent inhibition of incorporation was calculated relative to an untreated control culture for each labeled precursor and plotted with GraphPad Prism.

T2 sequence (P20083 whole entry): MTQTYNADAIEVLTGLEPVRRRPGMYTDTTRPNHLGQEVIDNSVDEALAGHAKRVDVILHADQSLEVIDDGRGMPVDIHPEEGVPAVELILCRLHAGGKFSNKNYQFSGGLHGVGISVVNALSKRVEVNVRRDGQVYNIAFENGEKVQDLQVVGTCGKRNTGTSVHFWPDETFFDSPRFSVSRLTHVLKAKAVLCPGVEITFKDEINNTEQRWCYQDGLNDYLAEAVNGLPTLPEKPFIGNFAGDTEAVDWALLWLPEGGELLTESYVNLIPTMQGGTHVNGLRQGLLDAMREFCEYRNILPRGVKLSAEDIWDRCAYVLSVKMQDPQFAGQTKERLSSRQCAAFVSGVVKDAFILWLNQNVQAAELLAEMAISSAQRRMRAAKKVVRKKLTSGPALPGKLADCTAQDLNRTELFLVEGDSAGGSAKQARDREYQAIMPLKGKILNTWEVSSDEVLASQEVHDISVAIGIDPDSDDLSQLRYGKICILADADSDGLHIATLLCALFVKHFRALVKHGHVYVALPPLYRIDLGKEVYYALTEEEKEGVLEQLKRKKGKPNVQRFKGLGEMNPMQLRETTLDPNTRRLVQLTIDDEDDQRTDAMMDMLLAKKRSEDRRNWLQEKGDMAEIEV
T2 sequence (P0AFI2 whole entry, further chain): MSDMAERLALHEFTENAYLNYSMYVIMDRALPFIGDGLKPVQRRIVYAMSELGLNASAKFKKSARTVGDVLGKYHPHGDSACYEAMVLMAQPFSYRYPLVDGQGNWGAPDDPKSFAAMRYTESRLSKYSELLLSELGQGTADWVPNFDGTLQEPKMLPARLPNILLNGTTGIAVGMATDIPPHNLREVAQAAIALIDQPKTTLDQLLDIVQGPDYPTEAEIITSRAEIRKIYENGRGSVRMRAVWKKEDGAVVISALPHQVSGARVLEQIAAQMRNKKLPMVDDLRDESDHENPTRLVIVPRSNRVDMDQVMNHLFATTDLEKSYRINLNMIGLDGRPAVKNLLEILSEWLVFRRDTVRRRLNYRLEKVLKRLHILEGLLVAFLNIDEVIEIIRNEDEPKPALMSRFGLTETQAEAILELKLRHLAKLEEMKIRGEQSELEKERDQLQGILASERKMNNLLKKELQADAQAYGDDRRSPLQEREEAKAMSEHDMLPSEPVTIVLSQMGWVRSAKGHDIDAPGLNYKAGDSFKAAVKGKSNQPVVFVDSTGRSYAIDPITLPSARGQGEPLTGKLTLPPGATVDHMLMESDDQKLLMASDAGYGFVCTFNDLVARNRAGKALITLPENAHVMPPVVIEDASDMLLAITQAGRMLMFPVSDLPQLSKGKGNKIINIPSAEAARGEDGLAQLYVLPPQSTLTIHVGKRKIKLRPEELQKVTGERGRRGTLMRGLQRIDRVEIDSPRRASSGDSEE

Compound: Cn1ncc2cc(-c3cnnn3C3CCN(C(=O)Nc4cc(Cl)cc(Cl)c4)CC3)ccc21 [MRL-423]
- cleavage complex stabilization (E. coli DNA gyrase): stabilizes cleavage complex formation in a dose-dependent fashion
- MIC (E. coli BW25113 ΔtolC): 0.25 µg/mL (≈ 0.532 µM)
- effect of deletion of yacG on potency ([1]; E. coli BW25113 (ΔtolC) ΔyacG): does not affect the potency
- MIC ([1]; Escherichia coli, BW25113): 0.25 µg/mL (≈ 0.532 µM)

Compound: Cn1ncc2cc(-c3nnnn3C3CCN(C(=O)Nc4ccc(Cl)c(Cl)c4)CC3)ccc21 [MRL-1082]
- reduction in culture viability (E. coli HS151; E. coli HS151, 2XMIC or greater, following 2–4 hours of treatment): greater than 3 log
- culture viability, below lower limit of quantitation (E. coli HS151; E. coli HS151, 4-8XMIC, after 8 hours): < 20 CFU/mL
- MIC (E. coli HS151; Escherichia coli, HS151, 24 h, read-out: MIC of isolates from treated culture): 0.0625 µg/mL
- activity against E. coli topoisomerase IV (E. coli topoisomerase IV): does not inhibit

Compound: COc1ccc(C)cc1NC(=O)N1CCC(n2nncc2-c2ccc3c(cnn3C)c2)CC1 [MRL-770]
- inhibition of macromolecule synthesis [2]: selective and reproducible inhibition of DNA synthesis
